Legend:
Escherichia coli [1] = assay: Antibacterial activity against Escherichia coli BW25113 after 16 to 18 hrs by micro-dilution method; assay type: functional
Escherichia coli [2] = assay: Antibacterial activity against tolC-deficient Escherichia coli BW25113 after 16 to 18 hrs by micro-dilution method; assay type: functional
Bacillus subtilis = assay: Antibacterial activity against Bacillus subtilis 168 after 16 to 18 hrs by micro-dilution method; assay type: functional; settings: subsp. subtilis str. 168
Acinetobacter baumannii = assay: Antibacterial activity against Acinetobacter baumannii after 16 to 18 hrs by micro-dilution method; assay type: functional
Staphylococcus aureus = assay: Antibacterial activity against Staphylococcus aureus after 16 to 18 hrs by micro-dilution method; assay type: functional
Pseudomonas aeruginosa = assay: Antibacterial activity against Pseudomonas aeruginosa after 16 to 18 hrs by micro-dilution method; assay type: functional
Salmonella typhimurium = assay: Antibacterial activity against Salmonella typhimurium after 16 to 18 hrs by micro-dilution method; assay type: functional, Salmonella enterica subsp. enterica serovar Typhimurium; settings: Salmonella enterica
Vibrio cholerae = assay: Antibacterial activity against Vibrio cholerae after 16 to 18 hrs by micro-dilution method; assay type: functional
Shigella boydii = assay: Antibacterial activity against Shigella boydii after 16 to 18 hrs by micro-dilution method; assay type: functional
Klebsiella pneumoniae = assay: Antibacterial activity against Klebsiella pneumoniae after 16 to 18 hrs by micro-dilution method; assay type: functional
Klebsiella aerogenes = assay: Antibacterial activity against Enterobacter aerogenes after 16 to 18 hrs by micro-dilution method; assay type: functional
Edwardsiella tarda = assay: Antibacterial activity against Edwardsiella tarda after 16 to 18 hrs by micro-dilution method; assay type: functional
Morganella morganii = assay: Antibacterial activity against Morganella morganii after 16 to 18 hrs by micro-dilution method; assay type: functional
Escherichia coli [3] = assay: Induction of membrane permeabilization in Escherichia coli BW25113 at MIC after 15 mins by propidium iodide staining-based fluorescence microplate reader method relative to 50% ethanol; assay type: functional

COc1ccc2[nH]cc(CCN)c2c1 [5-METHOXYTRYPTAMINE]
> 60.8 µg/mL: MIC (Escherichia coli [1]) | MIC (Escherichia coli [2]) | MIC (Bacillus subtilis) | MIC (Acinetobacter baumannii) | MIC (Staphylococcus aureus)

NCCc1c[nH]c2ccccc12 [TRYPTAMINE]
> 51 µg/mL: MIC (Escherichia coli [1]) | MIC (Escherichia coli [2]) | MIC (Bacillus subtilis) | MIC (Acinetobacter baumannii) | MIC (Staphylococcus aureus)

CCCCCCCCCCCCCCCOc1ccc2[nH]cc(CCN)c2c1.Cl
> 124 µg/mL: MIC (Escherichia coli [1]) | MIC (Escherichia coli [2]) | MIC (Bacillus subtilis) | MIC (Pseudomonas aeruginosa) | MIC (Salmonella typhimurium) | MIC (Vibrio cholerae) | MIC (Shigella boydii) | MIC (Klebsiella pneumoniae) | MIC (Klebsiella aerogenes) | MIC (Acinetobacter baumannii) | MIC (Edwardsiella tarda) | MIC (Morganella morganii) | MIC (Staphylococcus aureus)
13%: Activity (Escherichia coli [3])

CCCCOc1ccc2[nH]cc(CCN)c2c1.Cl
> 74 µg/mL: MIC (Pseudomonas aeruginosa) | MIC (Salmonella typhimurium) | MIC (Vibrio cholerae) | MIC (Shigella boydii) | MIC (Klebsiella pneumoniae) | MIC (Klebsiella aerogenes) | MIC (Edwardsiella tarda) | MIC (Morganella morganii)
3%: Activity (Escherichia coli [3])
> 74.3 µg/mL: MIC (Escherichia coli [1]) | MIC (Escherichia coli [2]) | MIC (Bacillus subtilis) | MIC (Acinetobacter baumannii) | MIC (Staphylococcus aureus)

Cl.NCCc1c[nH]c2ccc(OCCCCCCCc3ccccc3)cc12
14 µg/mL: MIC (Escherichia coli [1]) | MIC (Klebsiella aerogenes)
7 µg/mL: MIC (Salmonella typhimurium) | MIC (Vibrio cholerae) | MIC (Shigella boydii) | MIC (Klebsiella pneumoniae) | MIC (Acinetobacter baumannii)
> 112 µg/mL: MIC (Morganella morganii)
1.8 µg/mL: MIC (Escherichia coli [2]) | MIC (Bacillus subtilis)
3.5 µg/mL: MIC (Staphylococcus aureus)
56 µg/mL: MIC (Pseudomonas aeruginosa)
28 µg/mL: MIC (Edwardsiella tarda)

CCCCCCCCCOc1cccc(N)c1
10 µg/mL: MIC (Escherichia coli [2])
> 40 µg/mL: MIC (Escherichia coli [1])
40 µg/mL: MIC (Bacillus subtilis)
> 80 µg/mL: MIC (Pseudomonas aeruginosa) | MIC (Salmonella typhimurium) | MIC (Vibrio cholerae) | MIC (Shigella boydii) | MIC (Klebsiella pneumoniae) | MIC (Klebsiella aerogenes) | MIC (Acinetobacter baumannii) | MIC (Edwardsiella tarda) | MIC (Morganella morganii) | MIC (Staphylococcus aureus)

CCCCCCCCCOc1ccc2[nH]cc(CCNC(=O)OC(C)(C)C)c2c1
> 130 µg/mL: MIC (Escherichia coli [1]) | MIC (Escherichia coli [2]) | MIC (Bacillus subtilis) | MIC (Pseudomonas aeruginosa) | MIC (Salmonella typhimurium) | MIC (Vibrio cholerae) | MIC (Shigella boydii) | MIC (Klebsiella pneumoniae) | MIC (Klebsiella aerogenes) | MIC (Acinetobacter baumannii) | MIC (Edwardsiella tarda) | MIC (Morganella morganii) | MIC (Staphylococcus aureus)

Cc1[nH]c2ccc(O)cc2c1CCN
> 60.8 µg/mL: MIC (Escherichia coli [1]) | MIC (Escherichia coli [2]) | MIC (Bacillus subtilis) | MIC (Acinetobacter baumannii) | MIC (Staphylococcus aureus)

CCCCCCCCCOc1ccc2[nH]ccc2c1
> 83 µg/mL: MIC (Escherichia coli [1]) | MIC (Escherichia coli [2]) | MIC (Bacillus subtilis) | MIC (Pseudomonas aeruginosa) | MIC (Salmonella typhimurium) | MIC (Vibrio cholerae) | MIC (Shigella boydii) | MIC (Klebsiella pneumoniae) | MIC (Klebsiella aerogenes) | MIC (Acinetobacter baumannii) | MIC (Edwardsiella tarda) | MIC (Morganella morganii) | MIC (Staphylococcus aureus)
